{"source": "patent US12129221B2", "about": "“Difluoro phenyl amide RIP1 inhibitor” (SIRONAX LTD, priority 2018, dated 2024)", "key": {"ferroptosis": {"tested_on": "ferroptosis", "assay": "Ferroptosis inhibitor activity", "assay_type": "cell-based", "conditions": "1 uM threshold activity extrapolated", "from_the_text": "Ferroptosis Inhibitor Activity 1 Um Threshold Activity Extrapolated"}, "Human RIP1 kinase": {"molecular_target": "Human RIP1 kinase (Homo sapiens (Human), UniProt Q13546)", "sequence (Q13546 whole entry)": "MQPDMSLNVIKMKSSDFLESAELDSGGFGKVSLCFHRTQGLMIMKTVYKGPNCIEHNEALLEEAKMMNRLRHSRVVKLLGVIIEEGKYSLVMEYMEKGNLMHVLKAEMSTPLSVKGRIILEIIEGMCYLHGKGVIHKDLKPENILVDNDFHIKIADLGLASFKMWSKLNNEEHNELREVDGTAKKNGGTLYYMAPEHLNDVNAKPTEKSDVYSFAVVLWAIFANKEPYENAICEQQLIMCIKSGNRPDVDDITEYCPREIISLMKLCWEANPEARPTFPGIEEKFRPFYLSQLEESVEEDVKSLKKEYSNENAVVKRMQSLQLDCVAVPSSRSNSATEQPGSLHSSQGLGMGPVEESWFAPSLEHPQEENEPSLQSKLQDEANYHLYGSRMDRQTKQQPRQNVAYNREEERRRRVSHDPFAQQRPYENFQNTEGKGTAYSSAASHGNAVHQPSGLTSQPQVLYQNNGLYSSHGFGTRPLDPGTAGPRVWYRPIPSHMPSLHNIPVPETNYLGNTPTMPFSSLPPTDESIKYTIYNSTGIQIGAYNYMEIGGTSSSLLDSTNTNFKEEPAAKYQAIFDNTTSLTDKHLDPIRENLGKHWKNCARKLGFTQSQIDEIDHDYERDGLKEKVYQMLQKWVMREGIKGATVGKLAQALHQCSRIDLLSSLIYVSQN", "assay": "Human RIP1 kinase assay", "assay_type": "biochemical", "conditions": "given as bound or range", "from_the_text": "Representative IC50 of hRIP1 Kinase Assay Correlated with Our IC50 of Cell Necrosis Assay: […]"}, "HT-29": {"tested_on": "HT-29", "assay": "EC50 in HT-29", "assay_type": "cell-based", "conditions": "Homo sapiens"}, "[1]": {"assay": "Liver microsome stability, human", "assay_type": "in vitro ADME", "conditions": "liver microsomes, liver microsome stability, read-out: Human T1/2", "from_the_text": "(§1) Representative Metabolic Stability Data I; +, Extrapolated."}, "[2]": {"assay": "Liver microsome stability, rat", "assay_type": "in vitro ADME", "conditions": "liver microsomes", "from_the_text": "as §1"}, "[3]": {"assay": "Liver microsome stability, dog", "assay_type": "in vitro ADME", "conditions": "dog, liver microsomes", "from_the_text": "as §1"}, "[4]": {"assay": "Liver microsome stability, mini-pig", "assay_type": "in vitro ADME", "set-up": "key to mini-pig T1/2 (min): +, Extrapolated", "conditions": "extrapolated", "from_the_text": "as §1"}, "[5]": {"assay": "Liver microsome stability, monkey", "assay_type": "in vitro ADME", "conditions": "monkey, liver microsomes", "from_the_text": "as §1"}, "[6]": {"assay": "Hepatocyte stability, human", "assay_type": "in vitro ADME", "conditions": "human, hepatocytes, read-out: Human T1/2", "from_the_text": "(§2) Representative Metabolic Stability Data II, +, Extrapolated."}, "[7]": {"assay": "Hepatocyte stability, rat", "assay_type": "in vitro ADME", "conditions": "rat, hepatocytes, read-out: Rat T1/2", "from_the_text": "as §2"}, "[8]": {"assay": "Hepatocyte stability, mouse", "assay_type": "in vitro ADME", "conditions": "mouse, hepatocytes, read-out: Mouse T1/2", "from_the_text": "as §2"}, "[9]": {"assay": "Hepatocyte stability, dog", "assay_type": "in vitro ADME", "conditions": "dog, hepatocytes, read-out: Dog T1/2", "from_the_text": "as §2"}, "[10]": {"assay": "Hepatocyte stability, mini-pig", "assay_type": "in vitro ADME", "conditions": "minipig, hepatocytes, read-out: mini-pig T1/2", "from_the_text": "as §2"}, "[11]": {"assay": "Hepatocyte stability, monkey", "assay_type": "in vitro ADME", "conditions": "monkey, hepatocytes, read-out: Monkey T1/2", "from_the_text": "as §2"}, "PK in rat": {"assay": "PK in rat", "set-up": "species or system SD rat", "conditions": "Sprague-Dawley, in vivo; for half-life / bioavailability: rat", "from_the_text": "Representative PK Date of Pro-Drug Compounds"}, "PK in dog": {"assay": "PK in dog", "conditions": "in vivo"}, "PK in monkey": {"assay": "PK in monkey", "conditions": "in vivo"}, "[12]": {"tested_on": "mouse EAE model of multiple sclerosis", "assay": "Mouse EAE model of multiple sclerosis", "assay_type": "in vivo, C57/BL6 mice", "from_the_text": "A mouse EAE model of multiple sclerosis was established by immunizing C57/BL6 mice with MOG35-55 (amino acids 35-55 of myelin oligodendrocyte glycoprotein) to induce autoimmune reaction to the myelin of the CNS. Immune reaction causes damage to the myelin, and subsequently the neurons, resulting in animal paralysis.\nSIR1-365 was delivered by food at 10 g/kg and FTY-720 was used as a positive control. Mice were feed with FTY-720 containing drinking water or with SIR1-365 containing chow 2 days before 1st immunization for 28 consecutive days. Scoring started at Day 8 post-1st immunization.\nThe results of pathological studies indicated myelin destruction of the spinal cord was protected by SIR1-365. Three different spinal cord regions were sectioned and stained with hematoxylin and eosin (H&E), spinal cord damages were scored and quantified. Feeding with SIR1-365 containing food protected spinal cord damage induced by auto-immune reaction in EAE model."}, "[13]": {"conditions": "Hepatocyte Stability, comparison table"}, "[14]": {"conditions": "po, 60 mg/kg, SD rat, dose 60 mg/Kg micropower"}}, "note": "Entries after “also recorded” stand apart in the source; their conditions may differ.", "data": [{"smiles": "CCC(C)(C)C(=O)N(O)Cc1cc(F)cc(F)c1", "note": "[Compound 13, N-(3,5-difluorobenzyl)-N-hydroxy-2,2-dimethylbutanamide]", "values": [{"measurement": "EC50", "setting": "ferroptosis", "result": "1 to 10", "unit": "µM"}, {"measurement": "IC50", "setting": "Human RIP1 kinase", "result": "< 0.1", "unit": "µM"}, {"measurement": "EC50", "setting": "HT-29", "result": 28, "unit": "nM"}, {"measurement": "half-life", "setting": "[1]", "result": 228, "unit": "min"}, {"measurement": "half-life", "setting": "[2]; comparison table with WO2016/101885 compounds, read-out: Rat Liver Microsome T1/2", "result": 20, "unit": "min"}, {"measurement": "half-life", "setting": "[2]; liver microsome stability, read-out: Rat T1/2", "result": 19.9, "unit": "min"}, {"measurement": "half-life", "setting": "[3]; comparison table with WO2016/101885 compounds, read-out: Dog Liver Microsome T1/2", "result": 2, "unit": "min"}, {"measurement": "half-life", "setting": "[3]; liver microsome stability, read-out: Dog T1/2", "result": 2.34, "unit": "min"}, {"measurement": "mini-pig T1/2 (min)", "setting": "[4]", "result": "+"}, {"measurement": "half-life", "setting": "[5]; comparison table with WO2016/101885 compounds, read-out: Monkey Liver Microsome T1/2", "result": 5, "unit": "min"}, {"measurement": "half-life", "setting": "[5]; liver microsome stability, read-out: Monkey T1/2", "result": 4.72, "unit": "min"}, {"measurement": "half-life", "setting": "[6]; [13]", "result": 152, "unit": "min"}, {"measurement": "half-life", "setting": "[6]; Hepatocyte stability", "result": 152, "unit": "min"}, {"measurement": "half-life", "setting": "[7]; [13]", "result": 28, "unit": "min"}, {"measurement": "half-life", "setting": "[7]; Hepatocyte stability", "result": 28, "unit": "min"}, {"measurement": "half-life", "setting": "[8]; [13]", "result": 20, "unit": "min"}, {"measurement": "half-life", "setting": "[8]; Hepatocyte stability", "result": 20.1, "unit": "min"}, {"measurement": "half-life", "setting": "[9]; [13]", "result": 13, "unit": "min"}, {"measurement": "half-life", "setting": "[9]; Hepatocyte stability", "result": 12.8, "unit": "min"}, {"measurement": "half-life", "setting": "[10]", "result": 21.2, "unit": "min"}, {"measurement": "half-life", "setting": "[11]; [13]", "result": 25, "unit": "min"}, {"measurement": "half-life", "setting": "[11]; Hepatocyte stability", "result": 24.9, "unit": "min"}, {"measurement": "AUC(0-inf)", "setting": "PK in rat; Rat, IV 2 mg/kg", "result": 540, "unit": "ng·h/mL"}, {"measurement": "clearance", "setting": "PK in rat; Rat, IV 2 mg/kg", "result": 61.7, "unit": "mL/min/kg"}, {"measurement": "Vd", "setting": "PK in rat; Rat, IV 2 mg/kg, read-out: Vdss", "result": 1.9, "unit": "L/kg"}, {"measurement": "AUC(0-inf)", "setting": "PK in rat; Rat, PO 20 mg/kg", "result": 1580, "unit": "ng·h/mL"}, {"measurement": "Cmax", "setting": "PK in rat; Rat, PO 20 mg/kg", "result": 1570, "unit": "ng/mL"}, {"measurement": "AUC(0-inf)", "setting": "PK in rat; Rat, PO 60 mg/kg", "result": 7520, "unit": "ng·h/mL"}, {"measurement": "Cmax", "setting": "PK in rat; Rat, PO 60 mg/kg", "result": 4910, "unit": "ng/mL"}, {"measurement": "AUC", "setting": "PK in rat; SD rat, PO, dose 60 mg/Kg micropower", "result": 7520, "unit": "ng·h/mL"}, {"measurement": "half-life", "setting": "PK in rat; iv, 2 mg/kg, IV 2 mg/kg", "result": 35.4, "unit": "min"}, {"measurement": "bioavailability", "setting": "PK in rat; po, 20 mg/kg, PO 20 mg/kg", "result": 39.4, "unit": "%"}, {"measurement": "half-life", "setting": "PK in rat; po, 20 mg/kg, PO 20 mg/kg", "result": 84, "unit": "min"}, {"measurement": "bioavailability", "setting": "PK in rat; po, 60 mg/kg, PO 60 mg/kg", "result": 62.8, "unit": "%"}, {"measurement": "half-life", "setting": "PK in rat; po, 60 mg/kg, PO 60 mg/kg", "result": 72, "unit": "min"}, {"measurement": "bioavailability", "setting": "PK in rat; [14]", "result": 62.8, "unit": "%"}, {"measurement": "half-life", "setting": "PK in rat; [14]", "result": 70.2, "unit": "min"}, {"measurement": "AUC(0-inf)", "setting": "PK in dog; IV 2 mg/kg", "result": 1840, "unit": "ng·h/mL"}, {"measurement": "clearance", "setting": "PK in dog; IV 2 mg/kg", "result": 18.5, "unit": "mL/min/kg"}, {"measurement": "half-life", "setting": "PK in dog; IV 2 mg/kg", "result": 61.2, "unit": "min"}, {"measurement": "Vd", "setting": "PK in dog; IV 2 mg/kg, read-out: Vdss", "result": 0.73, "unit": "L/kg"}, {"measurement": "AUC(0-inf)", "setting": "PK in dog; PO 10 mg/kg", "result": 1320, "unit": "ng·h/mL"}, {"measurement": "Cmax", "setting": "PK in dog; PO 10 mg/kg", "result": 981, "unit": "ng/mL"}, {"measurement": "bioavailability", "setting": "PK in dog; PO 10 mg/kg", "result": 14.9, "unit": "%"}, {"measurement": "half-life", "setting": "PK in dog; PO 10 mg/kg", "result": 429, "unit": "min"}, {"measurement": "AUC(0-inf)", "setting": "PK in dog; PO 60 mg/kg", "result": 2050, "unit": "ng·h/mL"}, {"measurement": "Cmax", "setting": "PK in dog; PO 60 mg/kg", "result": 938, "unit": "ng/mL"}, {"measurement": "bioavailability", "setting": "PK in dog; PO 60 mg/kg", "result": 4.06, "unit": "%"}, {"measurement": "half-life", "setting": "PK in dog; PO 60 mg/kg", "result": 339, "unit": "min"}, {"measurement": "AUC(0-inf)", "setting": "PK in dog; PO 150 mg/kg", "result": 7230, "unit": "ng·h/mL"}, {"measurement": "Cmax", "setting": "PK in dog; PO 150 mg/kg", "result": 2440, "unit": "ng/mL"}, {"measurement": "bioavailability", "setting": "PK in dog; PO 150 mg/kg", "result": 5.33, "unit": "%"}, {"measurement": "half-life", "setting": "PK in dog; PO 150 mg/kg", "result": 714, "unit": "min"}, {"measurement": "AUC(0-inf)", "setting": "PK in monkey; IV 2 mg/kg", "result": 1760, "unit": "ng·h/mL"}, {"measurement": "clearance", "setting": "PK in monkey; IV 2 mg/kg", "result": 19.3, "unit": "mL/min/kg"}, {"measurement": "half-life", "setting": "PK in monkey; IV 2 mg/kg", "result": 672, "unit": "min"}, {"measurement": "Vd", "setting": "PK in monkey; IV 2 mg/kg, read-out: Vdss", "result": 0.93, "unit": "L/kg"}, {"measurement": "AUC(0-inf)", "setting": "PK in monkey; PO 30 mg/kg", "result": 6930, "unit": "ng·h/mL"}, {"measurement": "Cmax", "setting": "PK in monkey; PO 30 mg/kg", "result": 3730, "unit": "ng/mL"}, {"measurement": "bioavailability", "setting": "PK in monkey; PO 30 mg/kg", "result": 26.3, "unit": "%"}, {"measurement": "half-life", "setting": "PK in monkey; PO 30 mg/kg", "result": 90, "unit": "min"}, {"measurement": "AUC(0-inf)", "setting": "PK in monkey; PO 100 mg/kg", "result": 41600, "unit": "ng·h/mL"}, {"measurement": "Cmax", "setting": "PK in monkey; PO 100 mg/kg", "result": 10700, "unit": "ng/mL"}, {"measurement": "bioavailability", "setting": "PK in monkey; PO 100 mg/kg", "result": 47.5, "unit": "%"}, {"measurement": "half-life", "setting": "PK in monkey; PO 100 mg/kg", "result": 106, "unit": "min"}, {"measurement": "AUC(0-inf)", "setting": "PK in monkey; PO 200 mg/kg", "result": 87200, "unit": "ng·h/mL"}, {"measurement": "Cmax", "setting": "PK in monkey; PO 200 mg/kg", "result": 20600, "unit": "ng/mL"}, {"measurement": "bioavailability", "setting": "PK in monkey; PO 200 mg/kg", "result": 49.5, "unit": "%"}, {"measurement": "half-life", "setting": "PK in monkey; PO 200 mg/kg", "result": 130, "unit": "min"}, {"measurement": "EAE-induced myelin / spinal cord damage and animal paralysis", "setting": "[12]; 10 g of compound per kilogram food, H&E stained spinal cord sections, listed as SIR1-365", "result": "significantly reduced EAE-induced myelin damage and animal paralysis; also recorded: substantial reduction of myelin damage"}, {"measurement": "disease score in EAE mice", "setting": "[12]; delivered by food at 10 g/kg, 28 consecutive days", "result": "significantly reduced the disease score"}]}]}
